{
  "source": "patent US20190054019A1",
  "about": "“METHODS FOR USING REGULATORS FOR INCREASING THE EXPRESSION OR ACTIVATION OF P53 AND/OR REGULATORS FOR REDUCING OR INHIBITING THE EXPRESSION OF P63-ALPHA, FOR THE TREATMENT OF NON-ALCOHOLIC FATTY LIVER DISEASE (NAFLD) AND/OR NON-ALCOHOLIC STEATOHEPATITIS (NASH)” (Universidade de Santiago de Compostela, priority 2015, published 2019)",
  "key": {"[1]": {"test": "Doxorubicin intraperitoneal for 5 days in Swiss mice on standard diet: body weight", "type": "in vivo, mice of the Swiss strain"}, "[2]": {"system": "mice of the C57/B6 strain fed with a HFD", "test": "Doxorubicin in C57/B6 mice fed HFD (60% fat)", "type": "in vivo", "conditions": "0.6 mg/kg i.p. twice per week, two months", "method": "Subsequently, mice were administered a dose of 0.6 mg/kg intra-peritoneally twice per week during a further period of two months."}, "HepG2": {"system": "HepG2", "test": "Accumulation of lipids induced by oleic acid in human hepatocytes (HepG2)", "type": "cell-based", "conditions": "48 h", "method": "The hepatocyte cell line of human origin HepG2 was treated with bovine serum albumin (BSA, which represents the control group), oleic acid (OA) and 50 nM oleic acid+doxorubicin for 48 h."}, "HepG2 cells": {"system": "HepG2 cells", "test": "Response of HepG2 cells (control or p53 negative dominant) to etoposide", "type": "cell-based, human", "source_text": "FIG. 9. Effect of p53 silencing in HepG2 cells. (A) Efficiency of the down-regulation of p53 in HepG2 cells transfected with adenoviruses expressing GFP alone or adenoviruses encoding a p53 negative dominant. (B) Oil red staining in HepG2 cells treated with etoposide at different concentrations. (C) Representative western blot of protein levels of peIF2α and Xbp1 in HepG2 cells non-treated and treated with etoposide. *p<0.05, n=4 per group.\nHepG2 cells were infected with adenoviruses expressing GFP alone or adenoviruses encoding a p53 negative dominant and treated with etoposide.\nHepG2 cells were infected with adenoviruses expressing GFP alone or adenoviruses encoding a p53 negative dominant. Infection efficiency was assessed by decreased expression of phosphor-p53 (pp53) (FIG. 9A). In order to investigate the response of control cells and cells with silenced p53, we challenged them to etoposide, a well established compound that induces stress."}, "[3]": {"conditions": "0.6 mg/kg i.p. twice per week, 2 months"}, "[4]": {"conditions": "0.6 mg/kg, two months, vs control vehicle"}, "[5]": {"conditions": "HepG2 cells treated with etoposide"}},
  "data": [
    {"smiles": "COc1cccc2c1C(=O)c1c(O)c3c(c(O)c1C2=O)C[C@@](O)(C(=O)CO)C[C@@H]3O[C@H]1C[C@H](N)[C@H](O)[C@H](C)O1", "note": "[doxorubicin]", "values": [
      {"measurement": "body composition: muscle mass", "setting": "HFD-induced obese mice; [3]", "result": "without altering the muscle mass"},
      {"measurement": "body composition: quantity of fat", "setting": "HFD-induced obese mice; [3]", "result": "reduce quantity of fat"},
      {"measurement": "levels of troponine (marker of cardiovascular damage)", "setting": "HFD-induced obese mice; 0.6 mg/kg i.p., serum", "result": "fails to significantly increase"},
      {"measurement": "hepatic damage (histological study)", "setting": "HFD-induced obese mice; 0.6 mg/kg, two months", "result": "reduced hepatic damage"},
      {"measurement": "liver expression of inflammatory markers TNF-α, arginase, IL-6, NOS2 and F480", "setting": "HFD-induced obese mice; 0.6 mg/kg, two months, mRNA", "result": "reduces the expression"},
      {"measurement": "level of non-esterified fatty acids in the liver", "setting": "HFD-induced obese mice; [4]", "result": "increased"},
      {"measurement": "level of triglycerides in the liver", "setting": "HFD-induced obese mice; [4]", "result": "reduced"},
      {"measurement": "liver protein levels of ER stress genes pIRE, XBP1, CHOP, pJNK", "setting": "HFD-induced obese mice; 0.6 mg/kg, two months, western blot", "result": "reduced the protein levels"},
      {"measurement": "body weight", "setting": "HFD-induced obese mice; all studied dosages (0.15, 0.3, 0.6, 1.25 mg/kg) i.p. twice per week, 2 months", "result": "significant loss of body weight"},
      {"measurement": "body weight change", "setting": "[1]; 0.3, 0.6, 1.25, 2.5 and 5 mg/kg intraperitoneal, 1 injection/day, dose dependent", "result": "significant loss of weight"},
      {"measurement": "dosages capable of reducing the body weight significantly", "setting": "[1]; intraperitoneal", "result": "≥ 0.6", "unit": "mg/kg"},
      {"measurement": "body weight", "setting": "[2]", "result": "reduced their body weight significantly"},
      {"measurement": "hepatic tryglicerides", "setting": "[2]", "result": "significantly reduced"},
      {"measurement": "amount of lipids in the cells vs cells treated with oleic acid", "setting": "HepG2; 50 nM oleic acid+doxorubicin", "result": "significant decrease in the amount of lipids"}
    ]},
    {"smiles": "COc1cc([C@@H]2c3cc4c(cc3[C@@H](O[C@@H]3O[C@@H]5CO[C@@H](C)O[C@H]5[C@H](O)[C@H]3O)[C@H]3COC(=O)[C@H]23)OCO4)cc(OC)c1O", "note": "[etoposide]", "values": [
      {"measurement": "ER stress markers peIF2α and XBP1 in cells with silenced p53 vs control cells", "setting": "HepG2 cells; [5]", "result": "higher levels"},
      {"measurement": "amount of lipid droplets in p53 dominant negative-infected cells vs control cells", "setting": "HepG2 cells; [5]", "result": "increased amount of lipid droplets"},
      {"measurement": "lipid deposition (oil red staining)", "setting": "HepG2 cells; HepG2 cells, dose-dependent", "result": "increased lipid deposition"}
    ]},
    {"smiles": "CCCCCCCC/C=C\\CCCCCCCC(=O)O", "note": "[oleic acid]", "values": [
      {"measurement": "amount of lipids in the cells vs BSA control", "setting": "HepG2; oleic acid", "result": "significantly increases the amount of lipids"}
    ]}
  ]
}
